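The compound was tested at five concentrations on cells cultured in 96-well plates, with a 48-hour exposure period. TGI is the concentration that stops growth completely.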
How the values were obtained:
Assay in all cases: growth of human tumour cells (NCI), 48 h
[1] = test system: SK-MEL-2 melanoma
[2] = test system: DU-145 prostate
[3] = test system: HOP-18 NSCLC
[4] = test system: RXF 393 renal
[5] = test system: DMS 114 small cell lung
[6] = test system: NCI-H460 lung
[7] = test system: ACHN renal
[8] = test system: HS 578T breast
[9] = test system: MCF7 breast
[10] = test system: A549 NSCLC
[11] = test system: SNB-75 CNS
[12] = test system: K-562 leukemia
[13] = test system: SF-295 CNS
[14] = test system: SK-OV-3 ovarian
[15] = test system: CAKI-1 renal
[16] = test system: HCC-2998 colon
[17] = test system: T-47D breast
[18] = test system: NCI-H23 lung
[19] = test system: XF 498 CNS
[20] = test system: HOP-92 NSCLC
[21] = test system: NCI/ADR-RES ovarian
[22] = test system: HT29 colon
[23] = test system: OVCAR-4 ovarian
[24] = test system: SK-MEL-28 melanoma
[25] = test system: OVCAR-5 ovarian
[26] = test system: SF-539 CNS
[27] = test system: HCT-116 colon
[28] = test system: MALME-3M melanoma
[29] = test system: UACC-257 melanoma
[30] = test system: NCI-H226 lung
[31] = test system: COLO 205 colon
[32] = test system: OVCAR-8 ovarian
[33] = test system: CCRF-CEM leukemia
[34] = test system: SF-268 CNS
[35] = test system: LXFL 529 NSCLC
[36] = test system: DMS 273 small cell lung
[37] = test system: SN12C renal
[38] = test system: HCT-15 colon
[39] = test system: OVCAR-3 ovarian
[40] = test system: IGROV1 ovarian
[41] = test system: DLD-1 colon
[42] = test system: SW-620 colon
[43] = test system: UO-31 renal
[44] = test system: HL-60(TB) leukemia
[45] = test system: MDA-MB-231 breast
[46] = test system: SNB-19 CNS
[47] = test system: EKVX NSCLC
[48] = test system: MDA-MB-435
[49] = test system: UACC-62 melanoma
[50] = test system: LOX IMVI melanoma
[51] = test system: MOLT-4 leukemia
[52] = test system: SK-MEL-5 melanoma
[53] = test system: 786-0 renal
[54] = test system: RPMI-8226 leukemia
[55] = test system: KM12 colon
[56] = test system: TK-10 renal
[57] = test system: M19-MEL melanoma
[58] = test system: PC-3 prostate
[59] = test system: U251 CNS
[60] = test system: SR leukemia
[61] = test system: M14 melanoma
[62] = test system: HOP-62 NSCLC
[63] = test system: KM20L2 colon
[64] = test system: SNB-78 CNS
[65] = test system: NCI-H522 lung
[66] = test system: A498 renal

COc1cc(/C=C/c2ccc(/C=C/c3cc(OC)c(OC)c(OC)c3)cc2)cc(OC)c1OC
TGI [1]: 53.9 µM
TGI [2]: > 100 µM
TGI [3]: > 100 µM
TGI [4]: 20.4 µM
TGI [5]: > 68.2 µM
TGI [6]: > 82 µM
TGI [7]: 44.5 µM
TGI [8]: 75.5 µM
TGI [9]: > 100 µM
TGI [10]: > 100 µM
TGI [11]: 19.5 µM
TGI [12]: > 100 µM
TGI [13]: 19.8 µM
TGI [14]: 22.7 µM
TGI [15]: 72.3 µM
TGI [16]: > 61.1 µM
TGI [17]: 24 µM
TGI [18]: 25.2 µM
TGI [19]: 31.4 µM
TGI [20]: 34.7 µM
TGI [21]: > 100 µM
TGI [22]: > 61.7 µM
TGI [23]: 18.1 µM
TGI [24]: > 100 µM
TGI [25]: > 100 µM
TGI [26]: 17.8 µM
TGI [27]: > 100 µM
TGI [28]: 60.1 µM
TGI [29]: > 100 µM
TGI [30]: 49.7 µM
TGI [31]: > 100 µM
TGI [32]: 56.1 µM
TGI [33]: > 100 µM
TGI [34]: 42.5 µM
TGI [35]: 35.9 µM
TGI [36]: > 48.9 µM
TGI [37]: > 100 µM
TGI [38]: > 100 µM
TGI [39]: 77.3 µM
TGI [40]: > 71.1 µM
TGI [41]: > 100 µM
TGI [42]: > 100 µM
TGI [43]: > 84.6 µM
TGI [44]: > 100 µM
TGI [45]: 52.7 µM
TGI [46]: 32.6 µM
TGI [47]: > 69.1 µM
TGI [48]: > 100 µM
TGI [49]: 25.1 µM
TGI [50]: > 85.8 µM
TGI [51]: > 100 µM
TGI [52]: > 100 µM
TGI [53]: 20.7 µM
TGI [54]: > 100 µM
TGI [55]: > 77.4 µM
TGI [56]: 39.5 µM
TGI [57]: > 100 µM
TGI [58]: > 100 µM
TGI [59]: 29.5 µM
TGI [60]: > 100 µM
TGI [61]: > 100 µM
TGI [62]: 31.3 µM
TGI [63]: > 76.3 µM
TGI [64]: 85 µM
TGI [65]: 27.2 µM
TGI [66]: 26.1 µM

C=C(Nc1ccc(OC)cc1OC)C(=O)Cc1cccc[n+]1[O-]
TGI [1]: > 100 µM
TGI [3]: > 100 µM
TGI [4]: > 100 µM
TGI [5]: > 100 µM
TGI [6]: > 100 µM
TGI [7]: > 100 µM
TGI [10]: > 100 µM
TGI [11]: > 100 µM
TGI [12]: > 100 µM
TGI [13]: > 100 µM
TGI [14]: > 100 µM
TGI [15]: > 100 µM
TGI [16]: > 100 µM
TGI [18]: > 100 µM
TGI [19]: > 100 µM
TGI [20]: > 100 µM
TGI [22]: > 100 µM
TGI [23]: > 100 µM
TGI [24]: > 100 µM
TGI [25]: > 100 µM
TGI [26]: > 100 µM
TGI [27]: > 100 µM
TGI [28]: > 100 µM
TGI [29]: > 100 µM
TGI [30]: > 100 µM
TGI [31]: > 100 µM
TGI [32]: > 100 µM
TGI [33]: > 100 µM
TGI [34]: > 100 µM
TGI [35]: > 100 µM
TGI [36]: > 100 µM
TGI [37]: > 100 µM
TGI [38]: > 100 µM
TGI [39]: > 100 µM
TGI [40]: > 100 µM
TGI [41]: > 100 µM
TGI [42]: > 100 µM
TGI [43]: > 100 µM
TGI [44]: > 100 µM
TGI [46]: > 100 µM
TGI [47]: > 100 µM
TGI [49]: > 100 µM
TGI [50]: > 100 µM
TGI [51]: > 100 µM
TGI [52]: > 100 µM
TGI [53]: > 100 µM
TGI [54]: > 100 µM
TGI [55]: > 100 µM
TGI [56]: > 100 µM
TGI [57]: > 100 µM
TGI [59]: > 100 µM
TGI [60]: > 100 µM
TGI [61]: > 100 µM
TGI [62]: > 100 µM
TGI [63]: > 100 µM
TGI [64]: > 100 µM
TGI [65]: > 100 µM
TGI [66]: > 100 µM
